Values joined by “and” are separate entries in the source; they are usually repeats but may differ in a detail not shown here. Identical values can stand only once.
What was measured:
[1] = activity coefficient (dimensionless); of the first substance listed, at infinite dilution; xn = mol fraction of the nth substance listed; details: 101.3 kPa, Liquid, x1 = 0
[2] = 101.33 kPa, Liquid, Vibrating tube method

C1CCCCC1 [cyclohexane] + CC(=O)[O-].CCn1cc[n+](C)c1
activity coefficient, [1]
Details	313 K	333 K	353 K	373 K	383 K	393 K	413 K
Chromatography	36.2 and 35.5	30.9 and 31.6	27.3 and 29.1	27.4 and 29.3	26.9 and 25.6	26.5 and 28.9	24.8 and 24.3
open tubular wall-coated column chromatography	31.8	31.5	32.8	–	–	30.3	–

CC#N [acetonitrile] + CC(=O)[O-].CCn1cc[n+](C)c1
activity coefficient, [1]
Details	333 K	353 K	373 K	383 K	393 K	403 K
Chromatography	–	–	0.82	0.85 and 0.88	0.87	–
open tubular wall-coated column chromatography	0.76	0.77	0.86	0.91	0.89	1.21

CCCO [propan-1-ol] + CC(=O)[O-].CCn1cc[n+](C)c1
[1], Open tubular Wall-Coated Column Chromatography
Details	activity coefficient
313 K	0.06
333 K	0.07
353 K	0.09
373 K	0.1
393 K	0.11
413 K	0.13

C[N+](=O)[O-] [nitromethane] + CC(=O)[O-].CCn1cc[n+](C)c1
[1], Open tubular Wall-Coated Column Chromatography
Details	activity coefficient
353 K	0.44
373 K	0.46
393 K	0.46

CC(C)O [propan-2-ol] + CC(=O)[O-].CCn1cc[n+](C)c1
[1], Open tubular Wall-Coated Column Chromatography
Details	activity coefficient
313 K	0.08
333 K	0.11
353 K	0.13
373 K	0.15
393 K	0.16
413 K	0.19

c1ccccc1 [benzene] + CC(=O)[O-].CCn1cc[n+](C)c1
activity coefficient, [1]
Details	313 K	333 K	353 K	373 K	383 K	393 K	403 K	413 K
Chromatography	–	–	3.41 and 3.39	3.45 and 3.31	3.49 and 3.62	3.52 and 3.45	4.15 and 3.67	4.1 and 4.11
open tubular wall-coated column chromatography	2.8	3.06	3.43	3.44	3.49	3.68	3.91	4.28

CCC(C)(C)O [2-methylbutan-2-ol] + CC(=O)[O-].CCn1cc[n+](C)c1
[1], Open tubular Wall-Coated Column Chromatography
Details	activity coefficient
353 K	0.29
373 K	0.35
393 K	0.42
413 K	0.49

CC(=O)[O-].CCn1cc[n+](C)c1 [1-ethyl-3-methylimidazolium acetate]
[2]
Details	mass density [kg/m3]
293.15 K	1100.87
298.15 K	1097.83
303.15 K	1094.77
308.15 K	1091.71
313.15 K	1088.65
318.15 K	1085.61
323.15 K	1082.57
328.15 K	1079.55
333.15 K	1076.54
338.15 K	1073.54
343.15 K	1070.55
348.15 K	1067.58
353.15 K	1064.61
358.15 K	1061.65

C1CCOC1 [tetrahydrofuran] + CC(=O)[O-].CCn1cc[n+](C)c1
activity coefficient, [1]
Details	313 K	333 K	353 K	373 K	383 K	393 K	403 K	413 K
Chromatography	–	3.91 and 3.36	3.92 and 3.37	3.68 and 3.5	–	3.88 and 3.35	4.02 and 3.55	4.13 and 3.9
open tubular wall-coated column chromatography	3.22	3.49	3.63	3.67	3.94	4.02	4	–

CC(C)(C)O [2-methylpropan-2-ol] + CC(=O)[O-].CCn1cc[n+](C)c1
[1], Open tubular Wall-Coated Column Chromatography
Details	activity coefficient
313 K	0.16
333 K	0.18
353 K	0.22
373 K	0.27
393 K	0.3
413 K	0.37

Cc1ccccc1 [toluene] + CC(=O)[O-].CCn1cc[n+](C)c1
activity coefficient, [1]
Details	313 K	333 K	353 K	363 K	373 K	383 K	393 K	403 K	413 K
Chromatography	–	–	–	6.07 and 6.21	6.08 and 5.92	6.12 and 6.03	6.23 and 5.87	6.28 and 6.04	7.11 and 6.37
open tubular wall-coated column chromatography	5.01	5.41	5.76	5.81	5.88	6.03	6.13	6.47	6.55

CCOC(C)=O [ethyl acetate] + CC(=O)[O-].CCn1cc[n+](C)c1
activity coefficient, [1]
Details	313 K	333 K	353 K	373 K	393 K	403 K	413 K
Chromatography	–	5.41 and 4.67	5.48 and 4.72	5.24 and 4.67	5.29 and 4.76	5.47 and 5.05	5.44 and 5.11
open tubular wall-coated column chromatography	4.41	4.77	5.24	5.62	5.35	5.32	–

C1COCCO1 [1,4-dioxane] + CC(=O)[O-].CCn1cc[n+](C)c1
activity coefficient, [1]
Details	333 K	353 K	373 K	393 K	403 K	413 K
Chromatography	–	–	2.56 and 2.43	2.63 and 2.32	2.75 and 2.44	2.77 and 2.46
open tubular wall-coated column chromatography	2.29	2.28	2.39	2.52	2.67	2.58

C=CCCCC [hex-1-ene] + CC(=O)[O-].CCn1cc[n+](C)c1
activity coefficient, [1]
Details	313 K	333 K	353 K	373 K	393 K	413 K
Chromatography	37.8 and 39	34.7 and 35.5	31.3 and 34.8	31 and 33.4	30.6 and 30.1	25 and 27
open tubular wall-coated column chromatography	36	35.1	–	–	–	–

COCCOC [1,2-dimethoxyethane] + CC(=O)[O-].CCn1cc[n+](C)c1
[1], Open tubular Wall-Coated Column Chromatography
Details	activity coefficient
313 K	3.56
333 K	3.88
353 K	4.11
373 K	4.51
393 K	4.81

CCCCCCC [heptane] + CC(=O)[O-].CCn1cc[n+](C)c1
[1], Open tubular Wall-Coated Column Chromatography
Details	activity coefficient
313 K	121
333 K	146
353 K	157
373 K	173

CCCCCC [hexane] + CC(=O)[O-].CCn1cc[n+](C)c1
activity coefficient, [1]
Details	313 K	333 K	353 K	373 K	393 K	413 K
Chromatography	86.4 and 90.5	82.4 and 80.7	65.9 and 71.3	66.1 and 72.7	58.8 and 55.3	91.2 and 66.5
open tubular wall-coated column chromatography	86.5	80	70.6	–	–	–
